Assay results: patent publication US11439648B2, “Use of topical BRAF inhibitor compositions for treatment of radiation dermatitis” (Lutris Pharma Ltd., priority 2019, dated 2022)

Test system: MIA PaCa2 K-ras cells
Assay: Proliferation of MIA PaCa cells (ATPlite proliferation kit)
Type: cell-based
Conditions: after 72 hours; concentration giving the highest proliferation (range 0.002 μM to 10 μM); starvation medium; average of 6 wells; presented as percent of over-proliferation vs DMSO control
Protocol: In this example, effect of the compounds on proliferation of MIA PaCa2 K-ras cells was studied. It was expected that the compounds that induce ERK phosphorylation would also induce proliferation of Mia PaCa cells.
The cells were seeded in starvation medium at 5000 cells/well in a 96 wells plate for 24 hours at 37° C., 5% CO2. The tested compounds were added at different concentrations ranging from 0.002 μM to 10 μM. The controls were untreated cells and vehicle of 0.1% DMSO. The cells were incubated at 37° C., 5% CO2, for 72 hours and then the proliferation was tested using the ATPlite proliferation kit (Perkin-Elmer). Each result represents an average of 6 wells. The results are presented as the percent of over-proliferation compared to the DMSO control.
The concentration of the compounds that provided the highest proliferation was compared to DMSO. DMSO was calculated as 100%.

SMILES | % proliferation compared to the DMSO control
Cc1ccc2c(Nc3ccc(Cl)cc3)nccc2c1Nc1ncccc1-c1ncnc2[nH]cnc12 [C-1] | 30%
Cc1ccc2c(Nc3cccc(OC(F)(F)F)c3)nccc2c1Nc1ncccc1-c1ncnc2[nH]cnc12 [LUT014] | 116%
CCCS(=O)(=O)Nc1ccc(F)c(C(=O)c2c[nH]c3ncc(-c4ccc(Cl)cc4)cc23)c1F [Vemurafenib] | 12%
